Here are results for 25 compounds from the Kinase Knowledgebase extract (Sharma et al. 2016).

Structures are written as SMILES. A value given as a limit tells only on which side of the number the result lay.

The assay concerns the target ROCK2 (human) (UniProt O75116). The assay can be described thus: Inhibition of ROCK2 Kinase Activity.

ROCK2 (human), sequence (O75116 whole entry, looked up): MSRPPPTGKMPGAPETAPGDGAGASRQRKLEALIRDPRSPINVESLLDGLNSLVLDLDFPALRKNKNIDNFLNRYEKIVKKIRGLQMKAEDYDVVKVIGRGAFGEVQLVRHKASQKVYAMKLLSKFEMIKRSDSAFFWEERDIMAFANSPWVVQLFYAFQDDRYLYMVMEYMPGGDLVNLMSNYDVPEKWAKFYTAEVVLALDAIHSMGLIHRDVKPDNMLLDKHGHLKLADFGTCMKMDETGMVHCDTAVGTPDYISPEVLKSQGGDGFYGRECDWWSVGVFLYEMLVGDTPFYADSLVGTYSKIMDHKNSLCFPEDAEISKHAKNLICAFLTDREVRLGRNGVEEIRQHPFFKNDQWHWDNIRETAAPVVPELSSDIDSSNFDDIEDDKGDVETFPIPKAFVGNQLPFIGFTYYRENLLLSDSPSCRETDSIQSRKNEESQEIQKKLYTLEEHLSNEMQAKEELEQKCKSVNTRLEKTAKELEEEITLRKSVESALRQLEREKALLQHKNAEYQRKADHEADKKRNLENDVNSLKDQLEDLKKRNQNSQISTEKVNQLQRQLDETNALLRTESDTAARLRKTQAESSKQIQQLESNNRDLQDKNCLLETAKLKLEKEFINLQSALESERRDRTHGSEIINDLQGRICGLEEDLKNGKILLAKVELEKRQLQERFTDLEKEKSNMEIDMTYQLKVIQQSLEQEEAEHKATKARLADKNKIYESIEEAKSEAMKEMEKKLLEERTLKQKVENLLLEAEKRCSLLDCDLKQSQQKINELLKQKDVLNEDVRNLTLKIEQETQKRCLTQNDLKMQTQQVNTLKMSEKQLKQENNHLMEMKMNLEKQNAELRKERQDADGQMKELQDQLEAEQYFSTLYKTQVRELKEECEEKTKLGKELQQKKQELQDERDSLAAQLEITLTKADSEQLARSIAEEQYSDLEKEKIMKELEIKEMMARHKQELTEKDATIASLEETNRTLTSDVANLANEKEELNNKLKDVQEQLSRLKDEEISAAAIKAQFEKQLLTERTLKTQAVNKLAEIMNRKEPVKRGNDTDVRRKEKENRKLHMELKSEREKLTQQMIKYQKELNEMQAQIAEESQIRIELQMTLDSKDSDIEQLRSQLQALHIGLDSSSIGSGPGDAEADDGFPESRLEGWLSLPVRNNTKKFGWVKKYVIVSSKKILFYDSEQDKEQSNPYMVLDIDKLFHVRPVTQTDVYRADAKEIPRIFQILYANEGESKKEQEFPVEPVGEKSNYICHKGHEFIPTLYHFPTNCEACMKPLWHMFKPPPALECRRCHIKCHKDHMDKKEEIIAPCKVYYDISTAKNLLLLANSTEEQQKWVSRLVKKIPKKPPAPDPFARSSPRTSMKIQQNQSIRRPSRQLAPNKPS

Consider `CC(C)N1CCC(C(=O)Nc2cc3cc[nH]c(=O)c3cc2Cl)CC1`, for which the IC50 was under 1 µM.
The compound `O=C(Nc1cc2cc[nH]c(=O)c2cc1Cl)[C@H]1CCCCN1` came in with a concentration for half-maximal inhibition (IC50) of under 1 µM.
`O=C(Nc1cc2cc[nH]c(=O)c2cc1Cl)[C@H](O)c1cccc(Cl)c1` displayed an IC50 of under 1 µM.
In turn, `Cc1ccc(F)cc1C(=O)Nc1cc2cc[nH]c(=O)c2cc1Cl` displayed an IC50 of under 1 µM.
The compound `C[C@@H](Oc1ccccc1)C(=O)Nc1cc2cc[nH]c(=O)c2cc1Cl` registered an IC50 of under 1 µM.
Turning to `CN1CCC(C(=O)Nc2cc3cc[nH]c(=O)c3cc2Br)CC1`, the IC50 is under 1 µM.
On to `CC(C)O[C@@H](C(=O)Nc1cc2cc[nH]c(=O)c2cc1Cl)c1ccccc1`, for which the IC50 was under 1 µM.
`CN1CCC(C(=O)Nc2cc3cc[nH]c(=O)c3cc2C#N)CC1` yielded an IC50 of under 1 µM.
The compound `CN(C)C(C(=O)Nc1cc2nc[nH]c(=O)c2cc1Cl)c1ccccc1` (stereo not given) came in with an IC50 of under 1 µM.
As to `O=C(Nc1cc2cc[nH]c(=O)c2cc1Br)[C@H]1CNC[C@@H]1c1ccc(Cl)cc1`, the IC50 was under 1 µM.
`N[C@H](Cc1cccc2ccccc12)C(=O)Nc1cc2cc[nH]c(=O)c2cc1Cl` yielded an IC50 of under 1 µM.
Regarding `O=C(Nc1cc2cc[nH]c(=O)c2cc1Cl)C(NC1CCC1)c1ccccc1` (stereo not given), the IC50 was under 1 µM.
In turn, `N[C@H]1C[C@H](C(=O)Nc2cc3cc[nH]c(=O)c3cc2Cl)C1` returned an IC50 of under 1 µM.
`O=C(Nc1cc2cc[nH]c(=O)c2cc1Cl)c1c(F)ccc(F)c1F` gave an IC50 of under 1 µM.
Consider `O=C(Nc1ccc2c(=O)[nH]ccc2c1)[C@@H]1CCCNC1`, for which the IC50 was under 1 µM.
With `O=c1[nH]ccc2cc(NC(=O)[C@H]3CC[C@@H](C(=O)O)CC3)c(Cl)cc12`, the IC50 was under 1 µM.
In turn, `CS(=O)(=O)CC(=O)Nc1cc2cc[nH]c(=O)c2cc1Cl` returned an IC50 of under 1 µM.
The compound `CO[C@H](C(=O)Nc1cc2cc[nH]c(=O)c2cc1Cl)c1ccccc1` displayed a half-inhibitory concentration (IC50) of under 1 µM.
Then `CS(=O)(=O)c1ccc(C(=O)Nc2cc3cc[nH]c(=O)c3cc2Cl)c(Cl)c1`, with under 1 µM; and `N[C@H]1CCC[C@H](C(=O)Nc2cc3cc[nH]c(=O)c3cc2Cl)C1`, with under 1 µM; and `O=C(Nc1cc2cc[nH]c(=O)c2cc1Cl)c1cccc2c1CNCC2`, with under 1 µM.
In turn, `CN(C)CC(=O)Nc1ccc2c(=O)[nH]ccc2c1` gave an IC50 of under 1 µM.
In turn, `NC(Cc1ccc(F)cc1)C(=O)Nc1cc2cc[nH]c(=O)c2cc1Cl` (stereo not given) came in with an IC50 of under 1 µM.
Take `O=C(CNCC1CCCCC1)Nc1ccc2c(=O)[nH]cnc2c1`: the IC50 was under 1 µM.
Compound `O=C(Nc1cc2cc[nH]c(=O)c2cc1Cl)C1(c2ccccc2)CCNC1` (stereo not given) yielded an IC50 of under 1 µM.
